Measured values reported in patent US20230348426A1, “OXOPYRROLIDINE FPR2 AGONISTS” (Bristol-Myers Squibb Company, priority 2020, published 2023).
pEC50: −log10 of the molar value.

Assays:
[1] = target: human FPR1 (Homo sapiens (Human), UniProt P21462); assay: FPR1 cyclic adenosine monophosphate (cAMP) assay; assay type: cell-based; details: CHO cells overexpressing human FPR1; forskolin 10 µM; inhibition of cAMP production; read-out: hFPR1 cAMP EC50
Summary of the method: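 CHO cells overexpressing human FPR1 (4,000 cells/well) stimulated with 10 µM forskolin plus 200 µM IBMX in the presence of compound (0.020 nM–100 µM, 1% DMSO), 30 min at room temperature. Intracellular cAMP measured by HTRF. Inhibition of cAMP production fitted to a 4-parameter logistic equation.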

[2] = target: human FPR2 (Homo sapiens (Human), UniProt P25090); assay: FPR2 cyclic adenosine monophosphate (cAMP) assay; assay type: cell-based; details: CHO cells overexpressing human FPR2; forskolin 5 µM; inhibition of cAMP production; read-out: hFPR2 cAMP2 EC50
Summary of the method: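 CHO cells overexpressing human FPR2 (2,000/well) incubated 30 min at room temperature with compound (0.020 nM–100 µM, 1% DMSO), 5 µM forskolin and 200 µM IBMX.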

human FPR2, sequence (P25090 whole entry): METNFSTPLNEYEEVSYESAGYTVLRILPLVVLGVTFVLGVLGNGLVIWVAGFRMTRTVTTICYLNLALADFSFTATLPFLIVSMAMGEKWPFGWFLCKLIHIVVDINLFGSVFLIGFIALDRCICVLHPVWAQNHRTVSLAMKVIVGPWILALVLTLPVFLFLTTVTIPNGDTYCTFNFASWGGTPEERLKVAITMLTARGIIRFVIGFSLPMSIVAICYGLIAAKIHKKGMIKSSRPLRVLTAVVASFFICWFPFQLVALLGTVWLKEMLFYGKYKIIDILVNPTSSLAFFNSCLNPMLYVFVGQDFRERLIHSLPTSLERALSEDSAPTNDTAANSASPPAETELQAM
human FPR1, sequence (P21462 whole entry): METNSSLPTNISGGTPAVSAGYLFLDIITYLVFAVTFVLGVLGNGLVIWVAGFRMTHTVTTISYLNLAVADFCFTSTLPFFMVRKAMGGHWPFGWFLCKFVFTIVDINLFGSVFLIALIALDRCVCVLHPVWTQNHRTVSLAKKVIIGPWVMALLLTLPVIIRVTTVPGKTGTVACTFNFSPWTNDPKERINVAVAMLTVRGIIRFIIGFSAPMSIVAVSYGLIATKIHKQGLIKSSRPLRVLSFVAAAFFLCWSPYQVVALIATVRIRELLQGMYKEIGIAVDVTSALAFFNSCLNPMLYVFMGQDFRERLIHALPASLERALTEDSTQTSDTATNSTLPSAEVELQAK

Row | pEC50 [1] | pEC50 [2] | Compound
1 | 6.89 | 7.96 | COc1cc(F)c([C@@H]2CN(c3ccc(C)n(C)c3=O)C(=O)[C@H]2NC(=O)c2ccc(OC(F)F)cc2)c(F)c1 [Example 324]
2 | 5.43 | 7.89 | COc1cc(F)c([C@@H]2CN(c3cc(C#N)cn(C)c3=O)C(=O)[C@H]2NC(=O)c2ccc(OC(F)F)cc2)c(F)c1 [Example 330]
3 | 5.24 | 7.85 | COc1cc(F)c([C@@H]2CN(c3nc(N4CCN(C)CC4)ccc3C(F)F)C(=O)[C@H]2NC(=O)c2ccc(Cl)cc2)c(F)c1 [Example 333]
4 | 6.32 | 7.85 | COc1cc(F)c([C@@H]2CN(c3nccc(N4C[C@@H]5C[C@H]4CN5C)c3C(F)(F)F)C(=O)[C@H]2NC(=O)c2ccc(Cl)cc2)c(F)c1 [Example 334]
5 | 7.22 | 7.77 | COCCn1c(C)ccc(N2C[C@@H](c3c(F)cc(OC)cc3F)[C@H](NC(=O)c3ccc(OC(F)F)cc3)C2=O)c1=O [Example 336]
6 | 8.96 | 7.64 | COCCn1ccc(C)c(N2C[C@@H](c3ccc(Cl)cc3)[C@H](NC(=O)c3ccc(OC(F)F)cc3)C2=O)c1=O [Example 340]
7 | 6.92 | 7.48 | COc1cc(F)c([C@@H]2CN(c3nc(C4CCOCC4)ccc3N(C)C)C(=O)[C@H]2NC(=O)c2ccc(OC(F)F)cc2)c(F)c1 [Example 343]
8 | 5.70 | 7.34 | COc1cc(F)c([C@@H]2CN(c3ncccc3C(F)(F)F)C(=O)[C@H]2NC(=O)c2ccc(Cl)nc2)c(F)c1 [Example 344]
9 | 5.72 | 7.01 | COc1cc(F)c([C@@H]2CN(c3cncnc3O)C(=O)[C@H]2NC(=O)c2ccc(OC(F)F)cc2)c(F)c1 [Example 346]
10 | 6.08 | 6.96 | COCCn1cccc(N2C[C@@H](c3c(F)cc(OC)cc3F)[C@H](NC(=O)c3ccc(OC(C)C)cc3)C2=O)c1=O [Example 347]
11 | 5.26 | 6.24 | COc1cc(F)c([C@@H]2CN(c3ncccc3C(F)(F)F)C(=O)[C@H]2NC(=O)C2CCc3cc(OC)ccc3C2)c(F)c1 (stereo partly shown) [Example 349]
12 | 8.30 | 8.10 | COc1cc(F)c([C@@H]2CN(c3c(C)ccn(C4CC4)c3=O)C(=O)[C@H]2NC(=O)c2ccc(OC(F)F)cc2)c(F)c1 [Example 351]
13 | 8.15 | 8.49 | COc1ccc([C@@H]2CN(c3cccn(CC(O)C(F)(F)F)c3=O)C(=O)[C@H]2NC(=O)c2ccc(OC(F)(F)F)cc2)cc1 (stereo partly shown) [Example 354]
14 | 7.92 | 8.51 | CCn1nccc(N2C[C@@H](c3c(F)cc(OC)cc3F)[C@H](NC(=O)c3ccc(OC(F)(F)F)cc3)C2=O)c1=O [Example 357]
15 | 7.85 | 8.70 | CCn1nccc(N2C[C@@H](c3c(F)cc(OC)cc3F)[C@H](NC(=O)c3ccc(OC(F)F)cc3)C2=O)c1=O [Example 358]
16 | 8.52 | 8.77 | COc1cc(F)c([C@@H]2CN(c3c(C)ccn(CC(C)O)c3=O)C(=O)[C@H]2NC(=O)c2ccc(OC(F)(F)F)cc2)c(F)c1 (stereo partly shown) [Example 361]
17 | 9.00 | 8.64 | COc1ccc([C@@H]2CN(c3cccn(CC(OC)C(F)(F)F)c3=O)C(=O)[C@H]2NC(=O)c2ccc(OC(F)(F)F)cc2)c(F)c1 (stereo partly shown) [Example 364]
18 | 8.52 | 8.92 | COc1ccc([C@@H]2CN(c3c(C)ccn(CCO)c3=O)C(=O)[C@H]2NC(=O)c2ccc(OC(F)F)cc2)c(F)c1 [Example 367]
19 | 7.07 | 8.77 | O=C(N[C@@H]1C(=O)N(c2cccn(CC(O)C(F)(F)F)c2=O)C[C@H]1c1ccc(Cl)cc1)c1ccc(OC(F)F)cc1 (stereo partly shown) [Example 368]
20 | 5.85 | 8.43 | COCCn1cncc(N2C[C@@H](c3c(F)cc(OC)cc3F)[C@H](NC(=O)c3ccc(OC(F)F)cc3)C2=O)c1=O [Example 370]
21 | 8.10 | 8.72 | COc1ccc([C@@H]2CN(c3cccn(CC(O)C(F)(F)F)c3=O)C(=O)[C@H]2NC(=O)c2ccc(OC(F)F)cc2)cc1 (stereo partly shown) [Example 371]

Continued, compound first:

Row | Compound | pEC50 [1] | pEC50 [2]
22 | COc1cc(F)c([C@@H]2CN(c3cccn(C4CCOC4)c3=O)C(=O)[C@H]2NC(=O)c2ccc(OC(F)F)cc2)c(F)c1 (stereo partly shown) [Example 320] | 7.36 | 8.00
23 | COc1cc(F)c([C@@H]2CN(c3cccn(CC(F)F)c3=O)C(=O)[C@H]2NC(=O)c2ccc(C#N)cc2)c(F)c1 [Example 321] | 6.24 | 8.00
24 | COCCn1cc(F)cc(N2C[C@@H](c3c(F)cc(OC)cc3F)[C@H](NC(=O)c3ccc(OC(F)(F)F)cc3)C2=O)c1=O [Example 322] | 7.01 | 8.00
25 | COc1cc(F)c([C@@H]2CN(c3cc(NC(C)=O)cn(C)c3=O)C(=O)[C@H]2NC(=O)c2ccc(OC(F)F)cc2)c(F)c1 [Example 323] | 6.12 | 7.96
26 | COCC(CO)n1ccc(C)c(N2C[C@@H](c3c(F)cc(OC)cc3F)[C@H](NC(=O)c3ccc(OC(F)(F)F)cc3)C2=O)c1=O (stereo partly shown) [Example 325] | 8.80 | 7.96
27 | COc1cc(F)c([C@@H]2CN(c3nc(N4CCC(O)C4=O)ccc3F)C(=O)[C@H]2NC(=O)c2ccc(OC(F)(F)F)cc2)c(F)c1 (stereo partly shown) [Example 326] | 7.46 | 7.96
28 | COc1cc(F)c([C@@H]2CN(c3nccc(NC4COC4)c3C(F)(F)F)C(=O)[C@H]2NC(=O)c2ccc(Cl)cc2)c(F)c1 [Example 327] | 5.77 | 7.92
29 | COc1cc(F)c([C@@H]2CN(c3nc(N4C[C@@H]5C[C@H]4CN5C)ccc3OC)C(=O)[C@H]2NC(=O)c2ccc(OC(F)F)cc2)c(F)c1 [Example 328] | 6.21 | 7.92
30 | COc1cc(F)c([C@@H]2CN(c3nc(N4C[C@@H](C)N(C)[C@@H](C)C4)ccc3C#N)C(=O)[C@H]2NC(=O)c2ccc(OC(F)F)cc2)c(F)c1 [Example 332] | 5.24 | 7.89
31 | COc1cc(F)c([C@@H]2CN(C3CCC3)C(=O)[C@H]2NC(=O)c2ccc(OC(F)(F)F)cc2)c(F)c1 [Example 335] | 6.35 | 7.82
32 | COc1cc(F)c([C@@H]2CN(c3c(C(F)(F)F)ccn(C)c3=O)C(=O)[C@H]2NC(=O)c2ccc(Cl)cc2)c(F)c1 [Example 337] | 5.37 | 7.77
33 | COCCn1ccc(C)c(N2C[C@@H](c3ccc(Cl)cc3)[C@H](NC(=O)c3ccc(OC(F)(F)F)cc3)C2=O)c1=O [Example 339] | 9.22 | 7.64
34 | COc1cc(F)c([C@@H]2CN(c3c(F)cccc3C#N)C(=O)[C@H]2NC(=O)c2ccc(Cl)cc2)c(F)c1 [Example 341] | 5.39 | 7.64
35 | COCCn1cccc(N2C[C@@H](c3c(F)cc(OC)cc3F)[C@H](NC(=O)c3ccc(OC)cc3)C2=O)c1=O [Example 342] | 6.08 | 7.49
36 | CCn1cccc(N2C[C@@H](c3c(F)cc(OC)cc3F)[C@H](NC(=O)c3cccc(OC)c3)C2=O)c1=O [Example 345] | 8.51 | 7.05
37 | COc1cc(F)c([C@@H]2CN(c3nc(N4C[C@@H](C)N(C)[C@@H](C)C4)ccc3C3CC3)C(=O)[C@H]2NC(=O)c2ccc(OC(F)F)cc2)c(F)c1 [Example 348] | 5.85 | 6.96
38 | COc1cc(F)c([C@@H]2CN(c3c(C)ccn(C4CCOC4)c3=O)C(=O)[C@H]2NC(=O)c2ccc(OC(F)(F)F)cc2)c(F)c1 (stereo partly shown) [Example 350] | 9.22 | 9.05
39 | COc1cc(F)c([C@@H]2CN(c3c(C)ccn(C4CC4)c3=O)C(=O)[C@H]2NC(=O)c2ccc(OC(F)(F)F)cc2)c(F)c1 [Example 352] | 8.52 | 8.32
40 | COCCN1CCC(N2C[C@@H](c3c(F)cc(OC)cc3F)[C@H](NC(=O)c3ccc(OC(F)(F)F)cc3)C2=O)C1=O (stereo partly shown) [Example 353] | 7.77 | 8.38
41 | O=C(N[C@@H]1C(=O)N(c2cccn(CC(O)C(F)(F)F)c2=O)C[C@H]1c1ccc(Cl)cc1)c1ccc(OC(F)(F)F)cc1 (stereo partly shown) [Example 355] | 8.40 | 8.35
42 | COc1cc(F)c([C@@H]2CN(c3ccnn(CCO)c3=O)C(=O)[C@H]2NC(=O)c2ccc(OC(F)(F)F)cc2)c(F)c1 [Example 356] | 7.51 | 8.46
43 | COc1cc(F)c([C@@H]2CN(c3c(C)ccn(CC(C)O)c3=O)C(=O)[C@H]2NC(=O)c2ccc(OC(F)(F)F)cc2)c(F)c1 (stereo partly shown) [Example 359] | 8.22 | 8.35
44 | COc1cc(F)c([C@@H]2CN(c3c(C)ccn(CC(C)O)c3=O)C(=O)[C@H]2NC(=O)c2ccc(OC(F)F)cc2)c(F)c1 (stereo partly shown) [Example 360] | 7.74 | 8.49
45 | COc1cc(F)c([C@@H]2CN(c3c(C)ccn(CC(C)O)c3=O)C(=O)[C@H]2NC(=O)c2ccc(Cl)cc2)c(F)c1 (stereo partly shown) [Example 362] | 7.92 | 10.00
46 | COCC(C(=O)N1C[C@@H]2C[C@H]1CO2)n1cccc(N2C[C@@H](c3c(F)cc(OC)cc3F)[C@H](NC(=O)c3ccc(OC(F)(F)F)cc3)C2=O)c1=O (stereo partly shown) [Example 363] | 8.52 | 9.10
47 | COCCn1ccc(C)c(N2C[C@@H](c3ccc(OC)cc3)[C@H](NC(=O)c3ccc(Cl)cc3)C2=O)c1=O [Example 365] | 9.00 | 8.59
48 | COc1ccc([C@@H]2CN(c3c(C)ccn(CC(F)F)c3=O)C(=O)[C@H]2NC(=O)c2ccc(Cl)cc2)cc1 [Example 366] | 8.52 | 8.52
49 | CCn1cncc(N2C[C@@H](c3c(F)cc(OC)cc3F)[C@H](NC(=O)c3ccc(OC(F)F)cc3)C2=O)c1=O [Example 369] | 5.96 | 8.43
50 | CCN1CCC(N2C[C@@H](c3c(F)cc(OC)cc3F)[C@H](NC(=O)c3ccc(OC(F)(F)F)cc3)C2=O)C1=O (stereo partly shown) [Example 372] | 7.77 | 8.55
